Assay results as given in PubChem BioAssay AID179 (DTP/NCI, 2004).
Activity calls are given as the source filed them.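 The calls were made as follows: active = compounds giving half or more protection of infected cells from virus-caused growth loss, again on retest; inactive = the rest.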 Where a SMILES comes first, the peptide text is derived from it. [ ]: non-standard residue; d: D form. The star is where a group is joined. hSer = N[CH](CCO)C(=O)O; Boc = CC(C)(C)OC(=O)*

System: CEM cells HIV-1 protection, formazan growth assay
Experiment: NCI AIDS Antiviral Assay
Conditions: for IC50: measured here: growth of uninfected CEM cells
In short: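 Human CEM cells, uninfected and HIV-1-infected, received five drug concentrations, and growth was read by soluble formazan assay. Compounds giving at least 50% protection were retested; reproducible 100% protection defined confirmed active.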

Which outcome does the source give for CCCCOP(=S)(OCCCC)OCCCC here?
Its outcome is “inactive”.

What does the source list for CC(CC(N)C(=O)O)C(=O)O (stereo unspecified)?
EC50: > 200 µM; IC50: > 200 µM

With COc1ccccc1NC(=O)C(CC(C(=O)Nc1ccccc1OC)/C(C)=N/Nc1ccc([N+](=O)[O-])cc1[N+](=O)[O-])/C(C)=N/Nc1ccc([N+](=O)[O-])cc1[N+](=O)[O-] (stereo unspecified) as the molecule, how does the EC50 read?
Its EC50 is > 9.12 µM.

And the IC50?
Its IC50 is > 9.12 µM.

With C/C(CC(C)C)=N/Nc1nc(C)cc(=O)[nH]1 as the molecule, how does the EC50 read?
Its EC50 is > 200 µM.

And the IC50?
The IC50 was > 200 µM.

Which EC50 does the source give for CN(C)CC1=C(O)c2ccccc2C(=O)C1=O here?
Its EC50 is > 1070 µM.

What about the IC50 of the same molecule?
The IC50 was > 1070 µM.

For CCCCc1ccc(Nc2nc(Cl)c3c(ncn3COCCOC(C)=O)n2)cc1, which EC50 is on record?
Its EC50 is > 200 µM.

What about the IC50 of the same molecule?
Its IC50 is 33.1 µM.

For O=S1(=O)C=Cc2ccccc2CC1, which EC50 is on record?
Its EC50 is > 1290 µM.

And the IC50?
Its IC50 is 741 µM.

CS(=O)(=O)NNS(=O)(=O)c1ccc2ccccc2c1 was tested. Which EC50 did it give?
Its EC50 is > 224 µM.

And the IC50?
Its IC50 is > 224 µM.

Which results are given for COCCC(NC(=O)C(CC(C)C)NC(=O)OC(C)(C)C)C(N)=O (stereo not drawn) (Boc-Leu-[hSer](Me)-NH2; configuration not given here)?
EC50: > 200 µM; IC50: > 200 µM

How did the EC50 turn out when CN(C)CCNc1ccc(CO)c2oc3ccc(O)cc3c(=O)c12 was run?
Its EC50 is > 398 µM.

And the IC50?
The IC50 was 1.15 µM.

How did the EC50 turn out when CNc1cc([N+](=O)[O-])ccc1C(=O)N1CCC[C@H]1CO was run?
The EC50 was > 200 µM.

And the IC50?
Its IC50 is > 200 µM.

For O=C(/C=C/c1ccc(O)c(O)c1)OCCCOC(=O)/C=C/c1ccc(O)c(O)c1, which EC50 is on record?
The EC50 was > 100 µM.

And the IC50?
The IC50 was 13.8 µM.

What does the source list for CN(C)c1ccc(C=C2C(=O)N(c3ccccc3)N(c3ccccc3)C2=O)cc1?
EC50: > 100 µM; IC50: 69.2 µM

N#CC1(C#N)N[C@@H](c2ccsc2)[C@H]2C(=O)N(c3ccccc3)C(=O)[C@H]21 was tested. Which EC50 did it give?
The EC50 was > 200 µM.

What about the IC50 of the same molecule?
The IC50 was 53.7 µM.

Which results are given for COCCN(C(=O)c1ccccc1)C1CCC(=O)c2[nH]c3ccccc3c21 (stereo unspecified)?
EC50: > 200 µM; IC50: 3.63 µM

For CC(=O)OC1C2C(=C(C)C(=O)O[C@@H]2c2ccoc2)[C@@]2(C)C3CCC(C)(C(=O)O3)C12 (stereo partly specified), which EC50 is on record?
The EC50 was 162 µM.

And the IC50?
The IC50 was > 200 µM.

For CCCCCCCCCCCCCC(=O)OCC1OC(OC)C(NC(=O)N(CCCl)N=O)C(O)C1O (stereo unspecified), which EC50 is on record?
Its EC50 is > 18.6 µM.

What about the IC50 of the same molecule?
The IC50 was 12 µM.

With O=C(CN(C(=O)OC12CC3CC(CC(C3)C1)C2)C(=O)OC12CC3CC(CC(C3)C1)C2)Oc1ccc([N+](=O)[O-])cc1 as the molecule, how does the EC50 read?
Its EC50 is > 200 µM.

What about the IC50 of the same molecule?
The IC50 was 9.77 µM.

For CN/C=C(/c1ccc(OC)cc1)C(O)c1ccc(OC)c(OC)c1 (stereo unspecified), which EC50 is on record?
Its EC50 is > 759 µM.

What about the IC50 of the same molecule?
The IC50 was 282 µM.

Which EC50 does the source give for COc1ccc(SSc2ccc(OC)n[n+]2[O-])[n+]([O-])n1 here?
Its EC50 is > 200 µM.

What about the IC50 of the same molecule?
Its IC50 is 1 µM.

How did the EC50 turn out when CCCNC(=S)N/N=C(\C)c1ccc(S(=O)(=O)N(C)c2ccccc2)cc1 was run?
Its EC50 is > 200 µM.

What about the IC50 of the same molecule?
The IC50 was > 200 µM.

Which EC50 does the source give for Cc1nn(C(=O)c2ccc(Cl)cc2)c2c1C(/C=C/c1ccccc1)SC(N)=N2 (stereo unspecified) here?
Its EC50 is 60.3 µM.

And the IC50?
The IC50 was 158 µM.

Which EC50 does the source give for COC(=O)C1(O)c2ccccc2N=C2C1CCN2C (stereo unspecified) here?
The EC50 was > 27.5 µM.

And the IC50?
The IC50 was > 27.5 µM.

For C=CCCOC(=O)CO[N+](=O)[O-], which outcome is on record?
Its outcome is “inactive”.

Which EC50 does the source give for NCCCN1CCN(CCCN)CC1 (tested in a mixture with another compound) here?
Its EC50 is > 200 µM.

What about the IC50 of the same molecule?
Its IC50 is > 200 µM.

For COCCCN1CC(=O)N2Cc3ccccc3CN2C(=O)C1, which outcome is on record?
Its outcome is “inactive”.

What about the IC50 of the same molecule?
The IC50 was > 200 µM.

For Cc1c(C)c2c(c(N)c1C#N)C(=O)N(Cc1ccc(S(N)(=O)=O)cc1)C2=O, which EC50 is on record?
The EC50 was 69.2 µM.

And the IC50?
The IC50 was > 200 µM.

O=C(O)CCCCCCCc1cc(O)ccc1[N+](=O)[O-] was tested. Which EC50 did it give?
The EC50 was > 200 µM.

What about the IC50 of the same molecule?
Its IC50 is > 200 µM.

Which results are given for CC(=O)CCC(NC(C)=O)(C(=O)O)C(=O)O?
EC50: > 200 µM; IC50: > 200 µM

What does the source list for COc1ccc(/C=C2\CN(C)CC3C2=NN(c2ccccc2)C3c2ccc(OC)cc2)cc1 (stereo unspecified)?
EC50: > 200 µM; IC50: > 200 µM

For COC(=O)c1ccc(/C=C/S(=O)(=O)c2ccccc2)cc1, which EC50 is on record?
The EC50 was > 4.79 µM.

And the IC50?
The IC50 was > 4.79 µM.

With O=[N+]([O-])c1cc([As](=O)(O)O)ccc1S(=O)(=O)O as the molecule, how does the EC50 read?
Its EC50 is > 200 µM.

What about the IC50 of the same molecule?
Its IC50 is > 200 µM.

For [N-]=[N+]=NC1CC(n2cc(Cc3ccccc3)c(=O)[nH]c2=O)OC1CO (stereo unspecified), which outcome is on record?
Its outcome is “inactive”.

What does the source list for O=C(CCc1nc(=S)[nH][nH]1)Nc1ccccc1Cl?
EC50: > 457 µM; IC50: > 457 µM

Which EC50 does the source give for COC(=O)/C=C1\SC(OC)(N(C)c2ccccc2)N(C)C1=O (stereo unspecified) here?
The EC50 was > 155 µM.

And the IC50?
The IC50 was 145 µM.

CC(C)N1C(C)[C@@H](c2ccccc2)O[P@@]1(=O)/C=C/C[C@H]1CC(=O)CCN1Cc1ccccc1 (stereo partly specified) was tested. Which outcome did it give?
Its outcome is “inactive”.

Which results are given for O=C(O)CNC(=O)Cn1[se]c2ccccc2c1=O?
EC50: 18.2 µM; IC50: 110 µM

O=C(NC(=Nc1ccccc1)SCSC(=Nc1ccccc1)NC(=O)c1ccc(Cl)cc1)c1ccc(Cl)cc1 was tested. Which EC50 did it give?
The EC50 was > 100 µM.

What about the IC50 of the same molecule?
Its IC50 is > 100 µM.

O/N=C/c1cc2c(cc1Br)OCO2 was tested. Which EC50 did it give?
The EC50 was > 155 µM.

And the IC50?
The IC50 was > 155 µM.

What does the source list for NC(=O)C(=CNC(=S)Nc1ccc(S(N)(=O)=O)cc1)C(N)=O?
EC50: > 200 µM; IC50: > 200 µM

How did the EC50 turn out when Oc1ccc2ccccc2c1C1=NNC(c2ccc(Cl)cc2)C1 (stereo unspecified) was run?
Its EC50 is > 200 µM.

And the IC50?
Its IC50 is 40.7 µM.

How did the EC50 turn out when c1ccc(-c2nnc(CCCCCCCCc3nnc(-c4ccccc4)o3)o2)cc1 was run?
Its EC50 is > 200 µM.

And the IC50?
The IC50 was 158 µM.

With COP(=O)(/C=C/c1cc(C(=O)OCc2ccccc2)n(S(=O)(=O)c2ccccc2)c1)OC as the molecule, how does the EC50 read?
The EC50 was 145 µM.

What about the IC50 of the same molecule?
Its IC50 is > 200 µM.

Which EC50 does the source give for N#C/C(=C/c1ccc2c(c1)OCO2)C(=O)c1ccccc1 here?
Its EC50 is > 36.3 µM.

What about the IC50 of the same molecule?
Its IC50 is > 36.3 µM.

With Cc1ccc(C(O)/C(=N/N)c2nc3ccc([N+](=O)[O-])cc3[nH]c2=O)cc1 (stereo unspecified) as the molecule, how does the EC50 read?
The EC50 was > 537 µM.

And the IC50?
The IC50 was 457 µM.

What does the source list for N#CCCC(CC#N)S(=O)(=O)O (stereo unspecified)?
EC50: > 200 µM; IC50: > 200 µM

Which results are given for CCN(CCCN(CC)C(=O)Nc1ccccc1)C(=O)Nc1ccccc1?
EC50: > 200 µM; IC50: 155 µM

For O=c1c(SCc2ccccc2Cl)c(SCc2ccccc2Cl)cnn1-c1ccccc1, which EC50 is on record?
Its EC50 is > 7.76 µM.

And the IC50?
The IC50 was 5.5 µM.

How did the EC50 turn out when Cc1nc(Nc2ccccc2C)c2ccsc2n1 was run?
Its EC50 is > 263 µM.

What about the IC50 of the same molecule?
Its IC50 is > 263 µM.

N#CC(C(=O)/C(=N/NC(=O)c1ccccc1O)C(C#N)c1ccccc1)c1ccccc1 (stereo unspecified) was tested. Which EC50 did it give?
The EC50 was > 589 µM.

What about the IC50 of the same molecule?
Its IC50 is 10.7 µM.

How did the EC50 turn out when O=[N+]([O-])c1ccc2c3c(cccc13)S(=O)(=O)O2 was run?
Its EC50 is > 200 µM.

What about the IC50 of the same molecule?
The IC50 was 85.1 µM.

For CONC1CC(n2cc(C)c(=O)[nH]c2=O)OC1CO (stereo unspecified), which EC50 is on record?
Its EC50 is > 200 µM.

What about the IC50 of the same molecule?
Its IC50 is > 200 µM.

How did the EC50 turn out when COc1ccc(C2CC(=O)CC(c3ccc(OC)cc3)C23C(=O)NC(=S)NC3=O)cc1 (stereo unspecified) was run?
Its EC50 is > 100 µM.

What about the IC50 of the same molecule?
Its IC50 is > 100 µM.

Which outcome does the source give for COC(=O)C(CC1=C(O)Nc2ccccc2N1)/C(=N/NC(N)=O)C(=O)Nc1ccccc1C (stereo unspecified) here?
Its outcome is “inactive”.

How did the outcome turn out when CC(=O)O[C@H]1CCC2[C@@H]3CCC4=C(O)C(=O)C(C#N)C[C@]4(C)C3CC[C@@]21C (stereo partly specified) was run?
Its outcome is “inactive”.

With CC(C)(C)SS(=O)C(C)(C)C (stereo unspecified) as the molecule, how does the EC50 read?
The EC50 was > 97.7 µM.

What about the IC50 of the same molecule?
The IC50 was > 97.7 µM.

Which results are given for O=[N+]([O-])c1cccc2nc3ccccc3c(NCCCN3CCCCC3)c12?
EC50: > 2 µM; IC50: 0.0126 µM

O=c1[nH]c(O)c(/C=N/C(=S)NCc2ccccc2)c(=O)[nH]1 was tested. Which EC50 did it give?
The EC50 was > 200 µM.

What about the IC50 of the same molecule?
Its IC50 is 195 µM.

Which EC50 does the source give for C/C=C(/C)C(=O)O[C@H]1[C@H](O)CC(c2ccc3c(c2O)C(O)=C2C(=O)C4(OC)C(O)=C(C(N)=O)C(=O)[C@H](CC(=O)c5ccccc5O)C4CC2[C@@]3(C)OC)O[C@@H]1C (stereo partly specified) here?
The EC50 was > 2 µM.

And the IC50?
The IC50 was 0.000631 µM.

For O=C(O)[C@H]1C[C@H](O)CN1C(=O)c1ccccc1SSc1ccccc1C(=O)N1C[C@H](O)C[C@H]1C(=O)O, which EC50 is on record?
The EC50 was > 200 µM.

What about the IC50 of the same molecule?
The IC50 was > 200 µM.

With COc1cc(C)c(C(=O)/C=C/c2cc(OC)c(O)c(OC)c2)cc1O as the molecule, how does the EC50 read?
The EC50 was > 275 µM.

What about the IC50 of the same molecule?
Its IC50 is 12.9 µM.
